Results taken from article PMC5999526 (Shock (Augusta, Ga.), 2018).
Entries after “also recorded” stand apart in the source; their conditions may differ.

What was measured:
[1] = molecular target: purified human 20S immunoproteasome (LMP7, LMP2 and LMP10), CT-like activity (Homo sapiens, UniProt P28062); assay: Purified proteasome fluorescence assay, CT-like activity, immunoproteasome; assay type: biochemical
[2] = molecular target: purified human 20S proteasome (X, Y and Z), CT-like activity (Homo sapiens, UniProt P28074); assay type: biochemical
[3] = system: CD14+ human blood monocytes; assay: Cyto-ID autophagy detection assay, blood monocytes; assay type: cell-based; conditions: 4h incubation, resveratrol 80 μM
[4] = system: CT-like proteasome activity in THP1 cells; assay: Cell-based proteasome activity, luminescence assay; design: species or system human; conditions: read-out: IC50, CT-like activity (cellular), 30 min incubation
[5] = system: T-like proteasome activity in THP1 cells; assay: Cell-based proteasome activity, luminescence assay; design: species or system human; conditions: read-out: IC50, T-like activity (cellular), 30 min incubation
[6] = molecular target: purified human 20S proteasome, PA activity (Homo sapiens, UniProt P28072); assay: Purified proteasome fluorescence assay, PA activity, constitutive proteasome; assay type: biochemical
[7] = system: PA proteasome activity in THP1 cells; assay: Cell-based proteasome activity, luminescence assay; design: species or system human; conditions: read-out: IC50, PA activity (cellular), 30 min incubation
THP1 cells = assay: Cyto-ID autophagy detection assay, THP1 cells; assay type: cell-based, human; conditions: 4h incubation, resveratrol 80 μM, ONX-0914 0.25 μM
[8] = system: CD14+ human blood monocytes; assay: Gene expression by qRT-PCR in LPS-induced CD14+ monocytes; assay type: cell-based; conditions: for expression of Bax / expression of Bcl2 / proteasome subunits RNA (X, Y, Z): resveratrol 80 μM or ONX-0914 0.25 μM; for LPS-induced atg7 expression / LPS-induced expression of resistin / expression of ICAM-1 / expression of IFNγ / expression of IL-8 / expression of LMP10 subunit / expression of Sirt-1 / expression of TNF-α / mRNA expression of LMP2 subunit / mRNA expression of LMP7 subunit: resveratrol 80 μM or ONX-0914 0.25 μM pretreatment 1h, LPS 10 ng/mL 4h; for proteasome subunits RNA (X, Y, Z): with LPS 10 ng/mL 4h
[9] = system: purified human 20S proteasome and immunoproteasome, T-like activity; assay: Purified proteasome fluorescence assay, T-like activity; assay type: biochemical
[10] = system: pIκBα in CD14+ human blood monocytes; assay: pIκBα protein levels by immunoblot; assay type: cell-based; conditions: LPS 10 ng/ml-induced monocytes, resveratrol 80 μM or ONX-0914 0.25 μM, 60 min preincubation
[11] = molecular target: purified human 20S immunoproteasome (LMP subunits), PA activity (Homo sapiens, UniProt P28065); assay: Purified proteasome fluorescence assay, PA activity, immunoproteasome; assay type: biochemical
[12] = MTT and LDH cell death assay; conditions: human
monocytes = assay: MTT and LDH cell death assay; conditions: 80 μM, human monocytes, MTT, LDH or autophagy tests
[13] = system: purified human 20S proteasome and immunoproteasome, PA activity; assay: Purified proteasome fluorescence assay, PA activity; assay type: biochemical; conditions: 50 μM dose, cell-free

SMILES | induction of autophagy (THP1 cells) | expression of Bax [8] | expression of Bcl2 [8] | LPS-induced atg7 expression [8] | LPS-induced expression of resistin [8] | expression of ICAM-1 [8] | expression of IFNγ [8] | expression of IL-8 [8] | expression of LMP10 subunit [8] | expression of Sirt-1 [8] | expression of TNF-α [8] | mRNA expression of LMP2 subunit [8] | mRNA expression of LMP7 subunit [8] | proteasome subunits RNA (X, Y, Z) [8] | degradation of pIκBα protein [10] | other results
Oc1ccc(C=Cc2cc(O)cc(O)c2)cc1 [resveratrol, 3,5, 4′-trihydroxystilbene] | did not induce autophagy | no change; also recorded: didn’t notice any effect | no change; also recorded: didn’t notice any effect | downregulated | decreased | significantly downregulated | significantly downregulated | significantly downregulated | no significant change | no significant upregulation | significantly downregulated | robust decrease | robust decrease | did not observe a significant change | inhibited degradation of pIκBα protein levels | IC50 [1]: 39.8 µM; IC50 [2]: 59.4 µM; induction of autophagy [3]: did not induce autophagy; IC50 [4]: 1.9 µM; IC50 [5]: 5 µM; IC50 [6]: 52.9 µM; IC50 [7]: 1.37 µM; expression of beclin1, eIF2α, p53 and hdac6 genes ([8]; resveratrol 80 μM, with or without LPS 10 ng/mL): no significant change; inhibition of T-like activity ([9]; 100 μM dose, cell-free): 33%; IC50 [11]: 40.8 µM; viability at 4 h, 100 μM [12]: > 90%; cell death (monocytes): no cell death was observed
COc1ccc(C[C@H](NC(=O)[C@H](C)NC(=O)CN2CCOCC2)C(=O)N[C@@H](Cc2ccccc2)C(=O)C2(C)CO2)cc1 (stereo in doubt) [ONX-0914, reference compound] | resulted in autophagy and vacuole accumulation | didn’t notice any effect | didn’t notice any effect | but not by ONX-0914 | decreased | significantly downregulated | significantly downregulated | significantly downregulated | no significant change | no significant upregulation | significantly downregulated | robust decrease | robust decrease | did not observe a significant change | inhibited pIκBα protein degradation | inhibition of T-like activity ([9]; highest dose of ONX-0914, cell-free): didn’t observe any inhibition; inhibition of PA activity [13]: 30%
